Experimental data taken from US7445764B1, “Carrier-drug conjugate” (priority 1999, dated 2008).

Experiments:
[1] = tested on: RENCA, renal cell carcinoma; settings: female, Balb/c, mouse, in vivo
Text: (§1) Animals: Balb/c mice, female; tumor: RENCA, renal cell carcinoma; therapy: day (d) 10, 14, 18, 21 intravenous (i.v.); end of trial: d 25.
(§2) The dose is relative to the quantity of doxorubicin present.

[2] = tested on: RENCA, renal cell carcinoma; experiment: RENCA (renal cell carcinoma) model, antitumoral action at approximately equitoxic dose; settings: RENCA in Balb/c mice
Text: as §1, §2

[3] = target: HSA-Cys^34-2 (conjugate of DTT-treated human serum albumin with doxorubicin-maleinimide-peptide derivative 2) (UniProt P02768)
HSA-Cys^34-2 (conjugate of DTT-treated human serum albumin with doxorubicin-maleinimide-peptide derivative 2), sequence (P02768 whole entry, looked up, tested part not stated): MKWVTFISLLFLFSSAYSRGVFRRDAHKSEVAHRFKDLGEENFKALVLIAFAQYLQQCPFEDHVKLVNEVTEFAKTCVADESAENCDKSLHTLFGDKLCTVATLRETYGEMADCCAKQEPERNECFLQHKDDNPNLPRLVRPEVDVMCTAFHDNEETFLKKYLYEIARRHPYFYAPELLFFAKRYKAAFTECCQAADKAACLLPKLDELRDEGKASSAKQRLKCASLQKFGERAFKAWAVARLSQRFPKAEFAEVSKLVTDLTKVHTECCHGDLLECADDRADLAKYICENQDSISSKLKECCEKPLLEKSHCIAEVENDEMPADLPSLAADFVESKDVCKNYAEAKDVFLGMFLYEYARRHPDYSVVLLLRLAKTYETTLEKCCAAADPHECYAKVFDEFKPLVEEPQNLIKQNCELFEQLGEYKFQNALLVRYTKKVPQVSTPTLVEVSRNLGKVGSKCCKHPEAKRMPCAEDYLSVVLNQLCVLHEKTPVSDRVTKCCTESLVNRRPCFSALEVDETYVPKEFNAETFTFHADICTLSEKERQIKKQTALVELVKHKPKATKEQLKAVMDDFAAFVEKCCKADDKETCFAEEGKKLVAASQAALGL

## COc1cccc2c1C(=O)c1c(O)c3c(c(O)c1C2=O)C[C@@](O)(C(=O)CO)C[C@@H]3O[C@H]1C[C@H](N)[C@H](O)[C@H](C)O1 [Doxorubicin, doxorubicin]
[1]
  Mortality (d): 1
[2]; FIG. 3A
  Visible renal tumors: plainly visible renal tumors were observed in all animals
[2]; FIG. 3B
  Number of pulmonary metastases, average: ~100 metastases per mouse
[2]; i.v. d 10, 14, 18, 21, end of trial d 25, approximately equitoxic doses
  Complete remission: no complete remissions

## matrix metalloprotease MMP 9 (trypsine/aprotinine-activated, from Calbiochem, Germany)
[3]
  liberation of DOXO-Gln-Gly-Ala-Ile due to cleavage with MMP 9 (HPLC gel chromatography, t=0 against t=30 min): The liberation of DOXO-Gln-Gly-Ala-Ile due to cleavage with MMP 9 was confirmed by HPLC gel chromatography
